Laboratory results from ChEMBL document CHEMBL1201862, “PubChem BioAssay data set” (2004).
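Grown in 96-well plates, cells were treated for 48 hours with each compound at five concentrations. Insufficient inhibition: endpoint recorded as highest concentration tested. At the GI50, growth is halved.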 The source made the active and inactive calls. Cut-off read from the data, not from the text of the source: active = GI50 up to about 1.1 µM and inactive = higher.

How the values were obtained:
Assay in all cases: NCI anticancer screen, dose series, 48 h
UACC-257 = tested on: UACC-257
HL-60 = tested on: HL-60
NCI-H522 = tested on: NCI-H522
M19-MEL = tested on: M19-MEL
UACC-62 = tested on: UACC-62
SK-OV-3 = tested on: SK-OV-3
DLD-1 = tested on: DLD-1
SNB-75 = tested on: SNB-75
SF-539 = tested on: SF-539
HOP-92 = tested on: HOP-92
HT-29 = tested on: HT-29
OVCAR-8 = tested on: OVCAR-8
SK-MEL-28 = tested on: SK-MEL-28
XF498 = tested on: XF498
KM-20L2 = tested on: KM-20L2
SK-MEL-2 = tested on: SK-MEL-2
SK-MEL-5 = tested on: SK-MEL-5
M14 = tested on: M14
OVCAR-3 = tested on: OVCAR-3
SN12C = tested on: SN12C
HOP-62 = tested on: HOP-62
U-251 = tested on: U-251
COLO 205 = tested on: COLO 205
EKVX = tested on: EKVX
DMS-114 = tested on: DMS-114
HCT-116 = tested on: HCT-116
IGROV-1 = tested on: IGROV-1
KM12 = tested on: KM12
LXFL 529 = tested on: LXFL 529
NCI-H226 = tested on: NCI-H226
A549 = tested on: A549
NCI-H460 = tested on: NCI-H460
786-0 = tested on: 786-0
SNB-78 = tested on: SNB-78
CAKI-1 = tested on: CAKI-1
NCI-H23 = tested on: NCI-H23
OVCAR-4 = tested on: OVCAR-4
SF-268 = tested on: SF-268
SNB-19 = tested on: SNB-19
LOX IMVI = tested on: LOX IMVI
UO-31 = tested on: UO-31
CCRF-CEM = tested on: CCRF-CEM
K562 = tested on: K562
SF-295 = tested on: SF-295
RPMI-8226 = tested on: RPMI-8226
HCT-15 = tested on: HCT-15
HOP-18 = tested on: HOP-18
DMS-273 = tested on: DMS-273
A498 = tested on: A498
MOLT-4 = tested on: MOLT-4
Malme-3M = tested on: Malme-3M
OVCAR-5 = tested on: OVCAR-5
HCC 2998 = tested on: HCC 2998
ACHN = tested on: ACHN
SR = tested on: SR
TK-10 = tested on: TK-10
SW-620 = tested on: SW-620
RXF 393 = tested on: RXF 393
RXF 631 = tested on: RXF 631

## C=C(CCCCC)CN1CCCC1C(C)=O (centres undefined)
UACC-257
  GI50: 26.6 µM (inactive)
HL-60
  GI50: 4.32 µM (inactive)
NCI-H522
  GI50: 11.4 µM (inactive)
M19-MEL
  GI50: 28.9 µM (inactive)
UACC-62
  GI50: 25.4 µM (inactive)
SK-OV-3
  GI50: 31.2 µM (inactive)
DLD-1
  GI50: 24.7 µM (inactive)
SNB-75
  GI50: 24.7 µM (inactive)
SF-539
  GI50: 35.6 µM (inactive)
HOP-92
  GI50: 20.3 µM (inactive)
HT-29
  GI50: 29.6 µM (inactive)
OVCAR-8
  GI50: 28.6 µM (inactive)
SK-MEL-28
  GI50: 57.3 µM (inactive)
XF498
  GI50: 15 µM (inactive)
KM-20L2
  GI50: 29.4 µM (inactive)
SK-MEL-2
  GI50: 26.1 µM (inactive)
SK-MEL-5
  GI50: 17.9 µM (inactive)
M14
  GI50: 41.5 µM (inactive)
OVCAR-3
  GI50: 27.9 µM (inactive)
SN12C
  GI50: 29.1 µM (inactive)
HOP-62
  GI50: 22.3 µM (inactive)
U-251
  GI50: 30.6 µM (inactive)
COLO 205
  GI50: 17.1 µM (inactive)
EKVX
  GI50: 35 µM (inactive)
DMS-114
  GI50: 15 µM (inactive)
HCT-116
  GI50: 27.6 µM (inactive)
IGROV-1
  GI50: 33.2 µM (inactive)
KM12
  GI50: 33 µM (inactive)
LXFL 529
  GI50: 27.3 µM (inactive)
NCI-H226
  GI50: 22 µM (inactive)
A549
  GI50: 32.9 µM (inactive)
NCI-H460
  GI50: 29 µM (inactive)
786-0
  GI50: 35.5 µM (inactive)
SNB-78
  GI50: 26.1 µM (inactive)
CAKI-1
  GI50: 34.7 µM (inactive)
NCI-H23
  GI50: 17.4 µM (inactive)
OVCAR-4
  GI50: 4.45 µM (inactive)
SF-268
  GI50: 42.3 µM (inactive)
SNB-19
  GI50: > 62.1 µM (inactive)
LOX IMVI
  GI50: 18.8 µM (inactive)
UO-31
  GI50: 31.4 µM (inactive)
CCRF-CEM
  GI50: 12.9 µM (inactive)
K562
  GI50: 15 µM (inactive)
SF-295
  GI50: 26.8 µM (inactive)
RPMI-8226
  GI50: 13.1 µM (inactive)
HCT-15
  GI50: 31.6 µM
HOP-18
  GI50: 28.9 µM (inactive)
DMS-273
  GI50: 21.5 µM (inactive)
A498
  GI50: 35 µM (inactive)
MOLT-4
  GI50: 8.75 µM (inactive)
Malme-3M
  GI50: 41.8 µM (inactive)
OVCAR-5
  GI50: 22.2 µM (inactive)
HCC 2998
  GI50: 32.4 µM (inactive)
ACHN
  GI50: 25.5 µM (inactive)
SR
  GI50: 14.9 µM (inactive)
TK-10
  GI50: 38.1 µM (inactive)
SW-620
  GI50: > 57.9 µM (inactive)
RXF 393
  GI50: 34.1 µM (inactive)

## CCOC(=O)[C@H]1Nc2c(cccc2[N+](=O)[O-])C2c3ccccc3CC21 (some centres undefined)
RXF 631
  GI50: > 100 µM (inactive)
UACC-257
  GI50: 27.7 µM (inactive)
NCI-H522
  GI50: > 100 µM (inactive)
M19-MEL
  GI50: > 100 µM (inactive)
UACC-62
  GI50: > 100 µM (inactive)
DLD-1
  GI50: > 100 µM (inactive)
SNB-75
  GI50: > 100 µM (inactive)
SF-539
  GI50: > 100 µM (inactive)
HT-29
  GI50: 18.3 µM (inactive)
OVCAR-8
  GI50: > 100 µM (inactive)
SK-MEL-28
  GI50: > 100 µM (inactive)
XF498
  GI50: > 100 µM (inactive)
KM-20L2
  GI50: > 100 µM (inactive)
SK-MEL-2
  GI50: > 100 µM (inactive)
SK-MEL-5
  GI50: > 100 µM (inactive)
M14
  GI50: > 100 µM (inactive)
OVCAR-3
  GI50: 40.8 µM (inactive)
SN12C
  GI50: > 100 µM (inactive)
HOP-62
  GI50: > 100 µM (inactive)
U-251
  GI50: > 100 µM (inactive)
COLO 205
  GI50: > 100 µM (inactive)
DMS-114
  GI50: > 100 µM (inactive)
HCT-116
  GI50: > 100 µM (inactive)
IGROV-1
  GI50: > 100 µM (inactive)
KM12
  GI50: > 100 µM (inactive)
LXFL 529
  GI50: > 100 µM (inactive)
NCI-H226
  GI50: > 100 µM (inactive)
A549
  GI50: > 100 µM (inactive)
NCI-H460
  GI50: > 100 µM (inactive)
SNB-78
  GI50: > 100 µM (inactive)
CAKI-1
  GI50: > 100 µM (inactive)
NCI-H23
  GI50: > 100 µM (inactive)
OVCAR-4
  GI50: 36.9 µM (inactive)
SF-268
  GI50: > 100 µM (inactive)
SNB-19
  GI50: > 100 µM (inactive)
LOX IMVI
  GI50: > 100 µM (inactive)
UO-31
  GI50: > 100 µM (inactive)
K562
  GI50: > 100 µM (inactive)
SF-295
  GI50: 35.6 µM (inactive)
RPMI-8226
  GI50: > 100 µM (inactive)
HCT-15
  GI50: > 100 µM
DMS-273
  GI50: > 100 µM (inactive)
MOLT-4
  GI50: > 100 µM (inactive)
Malme-3M
  GI50: > 100 µM (inactive)
OVCAR-5
  GI50: > 100 µM (inactive)
HCC 2998
  GI50: > 100 µM (inactive)
ACHN
  GI50: 28.4 µM (inactive)
SR
  GI50: 59.8 µM (inactive)
TK-10
  GI50: > 100 µM (inactive)
SW-620
  GI50: > 100 µM (inactive)
RXF 393
  GI50: 3.15 µM (inactive)
